Assay results published in publication PMC8672774, “Discovery of cell active macrocyclic peptides with on-target inhibition of KRAS signaling” (Chemical Science, 2021).

Tests used:
[1] = system: MAPK and PI3K signaling in A375 cells (BRAF^V600E); assay: Western blot of MAPK and PI3K signaling in A375 cells; type: cell-based
Method: (§1) Western Blotting: Cells were seeded in 24-well poly-D-lysine coated plates and treated with the indicated peptides the next day. Following incubation, 100 μl of 1X Bolt™ LDS sample buffer supplemented with NuPAGE® sample reducing agent was added. Wells were scrapped using wide orifice
bath sonicator (QSonica).
(§2) onto nitrocellulose membranes using the Trans-Blot® Turbo™ semi-dry sy s te m ( Bio -rad), and blocked for 1 hour at room temperature with tris-buffered saline (TBS) Odyssey blocking buffer (Li- Cor). Blots were probed with the appropriate primary antibodies overnight at 4°C in Odyssey blocking buffer supplemented with 0.1% Tween-20, followed by the secondary antibodies IRDye® 680RD donkey anti-mouse IgG or IRDye® 800CW donkey anti-rabbit IgG (Li- Cor) for 1 hour at room temperature.
(§3) Fluorescent signals were imaged and quantified using Odyssey® CLx. Primary antibodies used were:

[2] = system: MAPK and PI3K signaling in SK-MEL-28 cells (BRAF^V600E); assay: Western blot of MAPK and PI3K signaling in SK-MEL-28 cells; type: cell-based
Method: as §1
bath sonicator (QSonica).
as §2, §3

in vitro = details: human
rat mast cells = assay: Ex vivo rat mast cell degranulation and histamine release assay; details: for rMCD histamine release threshold: lowest concentration at which histamine release was observed, rat peritoneal mast cells, 30 min; for activation of mast cell degranulation (histamine release), in words: ex vivo, rat mast cells
Method: The reported rat mast cell degranulation (rMCD) value in Table 4 is a threshold for the lowest concentration at which a two-fold change in histamine release was observed.
In Vitro Rat M ast Cell Degranulation and H istamine Release Ass ess m ent: Peritoneal lavage was isolated
from Wister- Han rats as described in literature. In brief, animals were anesthetized with xylene followed
by an injection of about 10 mL of Tyrode buffer (12 mM NaHCO3, 127 mM NaCl, 5 mM KCl, 0.5 mM
NaH2PO4, 1 mM MgCl2, 5 mM Glucose and 10 mM HEPES, pH 7.4) into the peritoneal cavity. After a
gentle abdomen massage, peritoneal lavage was collected and centrifuged at 350 x g for 5 minutes. Cell
pellets were resuspended in Tyrode buffer with 10% heat inactivated rat serum to reach a final
Freshly isolated rat peritoneal cells were aliquoted to a 96 well tissue-
culture plate (100 µL per well).
peptides for 30 minutes at 37°C. After incubation, the plate was centrifuged at 350 x g for 2 minutes at
room temperature. Supernatant were collected and histamine concentration was measured by ELISA
(Neogen, Lansing, MI) following vendor’s instructions. Amount of histamine in the supernatant was
presented as ng/mL. A detection of histamine release was defined as the histamine concentration in
from 10 vehicle-control treated samples from the same animal). The lowest concentration that a

[3] = system: pERK and pAKT in AsPC-1 cells; assay: Western blot of KRAS signaling (pERK, pAKT) in AsPC-1 cells; type: cell-based; details: 1 hour and 16 hour time-points
Method: as §1
bath sonicator (QSonica).
as §2, §3
(D14E12) (Cell Signaling Technology, #8 24 2), phospho-IκBα (Ser32) (Cell Signaling Technology, #2 85 9) , IκBα (L35A5) (Cell Signaling Technology, #4 81 4) , NanoLuc (Promega, N7000) and pan-RAS (Sigma,
mM PMSF and Co mplete™ EDTA-free protease inhibitor cocktail (Roche) for 30 min with intermittent

Row | Structure (SMILES) | half-life at 1 µM (in vitro; HeLa cell homogenate) [h] | rMCD histamine release threshold (rat mast cells) [µM] | other results
1 | Cc1ccc(NC(=O)c2cccc(C(C)(C)C#N)c2)cc1Nc1ccc2ncn(C)c(=O)c2c1 [AZ628, reference compound] |  |  | inhibition of MAPK signaling in A375 [1]: inhibited MAPK signaling; inhibition of MAPK signaling in SK-MEL-28 [2]: inhibited MAPK signaling
2 | CC[C@H](C)[C@@H]1NC(=O)[C@H](Cc2ccc(O)cc2)NC(=O)[C@H](CC(C)C)NC(=O)[C@]2(C)CCCN2C(=O)[C@H](NC(=O)[C@H](CCCNC(=N)N)NC(=O)[C@H](CCCNC(=N)N)NC(=O)[C@H](CCCCN=[N+]=[N-])NC(C)=O)CSCSC[C@@H](C(=O)N[C@@H](CCCNC(=N)N)C(=O)N[C@@H](CCCNC(=N)N)C(N)=O)NC(=O)[C@H](C(C)C)NC(=O)[C@@H]2CCCN2C(=O)[C@H](CC(=O)O)NC(=O)[C@H](Cc2ccc(O)cc2)NC(=O)[C@H](CO)NC1=O [Compound 14] | 2.37 |  | 
3 | CC[C@H](C)[C@@H]1NC(=O)[C@H](Cc2ccc(O)cc2)NC(=O)[C@](C)(CC(C)C)NC(=O)[C@@H]2CCCN2C(=O)[C@H](NC(=O)[C@H](CCCNC(=N)N)NC(=O)[C@H](CCCNC(=N)N)NC(=O)[C@H](CCCCN=[N+]=[N-])NC(C)=O)CSCSC[C@@H](C(=O)N[C@@H](CCCNC(=N)N)C(=O)N[C@@H](CCCNC(=N)N)C(N)=O)NC(=O)[C@H](C(C)C)NC(=O)[C@@H]2CCCN2C(=O)[C@H](CC(=O)O)NC(=O)[C@H](Cc2ccc(O)cc2)NC(=O)[C@H](CO)NC1=O [Compound 15] | 1.9 |  | 
4 | CC[C@H](C)[C@@H]1NC(=O)[C@](C)(Cc2ccccc2)NC(=O)[C@H](CC(C)C)NC(=O)[C@@H]2CCCN2C(=O)[C@H](NC(=O)[C@H](CCCNC(=N)N)NC(=O)[C@H](CCCNC(=N)N)NC(=O)[C@H](CCCCN=[N+]=[N-])NC(C)=O)CSCSC[C@@H](C(=O)N[C@@H](CCCNC(=N)N)C(=O)N[C@@H](CCCNC(=N)N)C(N)=O)NC(=O)[C@H](C(C)C)NC(=O)[C@@H]2CCCN2C(=O)[C@H](CC(=O)O)NC(=O)[C@H](Cc2ccc(O)cc2)NC(=O)[C@H](CO)NC1=O [Compound 16] | > 6.22 |  | 
5 | CC[C@H](C)[C@@H]1NC(=O)[C@H](Cc2ccc(O)cc2)NC(=O)[C@H](CC(C)C)NC(=O)[C@@H]2CCCN2C(=O)[C@H](NC(=O)[C@H](CCCNC(=N)N)NC(=O)[C@H](CCCNC(=N)N)NC(=O)[C@H](CCCCN=[N+]=[N-])NC(C)=O)CSCSC[C@@H](C(=O)N[C@@H](CCCNC(=N)N)C(=O)N[C@@H](CCCNC(=N)N)C(N)=O)NC(=O)[C@H](C(C)C)NC(=O)[C@@H]2CCCN2C(=O)[C@H](CC(=O)O)NC(=O)[C@H](Cc2ccc(O)cc2)NC(=O)[C@](C)(CO)NC1=O [Compound 17] | 2.57 |  | 
6 | CC[C@H](C)[C@@H]1NC(=O)[C@H](Cc2ccc(O)cc2)NC(=O)[C@H](CC(C)C)NC(=O)[C@@H]2CCCN2C(=O)[C@H](NC(=O)[C@H](CCCNC(=N)N)NC(=O)[C@H](CCCNC(=N)N)NC(=O)[C@H](CCCCN=[N+]=[N-])NC(C)=O)CSCSC[C@@H](C(=O)N[C@@H](CCCNC(=N)N)C(=O)N[C@@H](CCCNC(=N)N)C(N)=O)NC(=O)[C@H](C(C)C)NC(=O)[C@@H]2CCCN2C(=O)[C@H](CC(=O)O)NC(=O)[C@](C)(Cc2ccc(O)cc2)NC(=O)[C@H](CO)NC1=O [Compound 18] | 1.18 |  | 
7 | CC[C@H](C)[C@@H]1NC(=O)[C@H](Cc2ccc(O)cc2)NC(=O)[C@H](CC(C)C)NC(=O)[C@@H]2CCCN2C(=O)[C@H](NC(=O)[C@H](CCCNC(=N)N)NC(=O)[C@H](CCCNC(=N)N)NC(=O)[C@H](CCCCN=[N+]=[N-])NC(C)=O)CSCSC[C@@H](C(=O)N[C@@H](CCCNC(=N)N)C(=O)N[C@@H](CCCNC(=N)N)C(N)=O)NC(=O)[C@H](C(C)C)NC(=O)[C@@H]2CCCN2C(=O)[C@](C)(CC(=O)O)NC(=O)[C@H](Cc2ccc(O)cc2)NC(=O)[C@H](CO)NC1=O [Compound 19] | 0.683 |  | 
8 | CC[C@H](C)[C@@H]1NC(=O)[C@H](Cc2ccc(O)cc2)NC(=O)[C@H](CC(C)C)NC(=O)[C@@H]2CCCN2C(=O)[C@H](NC(=O)[C@H](CCCNC(=N)N)NC(=O)[C@H](CCCNC(=N)N)NC(=O)[C@H](CCCCN=[N+]=[N-])NC(C)=O)CSCSC[C@@H](C(=O)N[C@@H](CCCNC(=N)N)C(=O)N[C@@H](CCCNC(=N)N)C(N)=O)NC(=O)[C@H](C(C)C)NC(=O)[C@]2(C)CCCN2C(=O)[C@H](CC(=O)O)NC(=O)[C@H](Cc2ccc(O)cc2)NC(=O)[C@H](CO)NC1=O [Compound 20] | 2.23 |  | 
9 | CC[C@H](C)[C@@H]1NC(=O)[C@H](Cc2ccc(O)cc2)NC(=O)[C@H](CC(C)C)NC(=O)[C@@H]2CCCN2C(=O)[C@H](NC(=O)[C@H](CCCNC(=N)N)NC(=O)[C@H](CCCNC(=N)N)NC(=O)[C@H](CCCCN=[N+]=[N-])NC(C)=O)CSCSC[C@@](C)(C(=O)N[C@@H](CCCNC(=N)N)C(=O)N[C@@H](CCCNC(=N)N)C(N)=O)NC(=O)[C@H](C(C)C)NC(=O)[C@@H]2CCCN2C(=O)[C@H](CC(=O)O)NC(=O)[C@H](Cc2ccc(O)cc2)NC(=O)[C@H](CO)NC1=O [Compound 22] | 2 |  | 
10 | CC[C@H](C)[C@@H]1NC(=O)[C@H](Cc2ccc(O)cc2)NC(=O)[C@H](CC(C)C)NC(=O)[C@@H]2CCCN2C(=O)[C@H](NC(=O)[C@H](CCCNC(=N)N)NC(=O)[C@H](CCCNC(=N)N)NC(=O)[C@H](CCCNC(=N)N)NC(=O)[C@H](CCCCN=[N+]=[N-])NC(C)=O)CSCSC[C@@H](C(=O)N[C@@H](CCCNC(=N)N)C(=O)N[C@@H](CCCNC(=N)N)C(=O)N[C@@H](CCCNC(=N)N)C(N)=O)NC(=O)[C@H](C(C)C)NC(=O)[C@@H]2CCCN2C(=O)[C@H](CC(=O)O)NC(=O)[C@H](Cc2ccc(O)cc2)NC(=O)[C@H](CO)NC1=O [Compound 23] |  | ≥0.14 | 
11 | CC[C@H](C)[C@@H]1NC(=O)[C@H](Cc2ccc(O)cc2)NC(=O)[C@H](CC(C)C)NC(=O)[C@@H]2CCCN2C(=O)[C@H](NC(=O)[C@H](CCCCN=[N+]=[N-])NC(C)=O)CSCSC[C@@H](C(=O)N[C@@H](CCCNC(=N)N)C(N)=O)NC(=O)[C@H](C(C)C)NC(=O)[C@@H]2CCCN2C(=O)[C@H](CC(=O)O)NC(=O)[C@H](Cc2ccc(O)cc2)NC(=O)[C@H](CO)NC1=O [Compound 24] |  | >100 | activation of mast cell degranulation (histamine release), in words (rat mast cells): free from this potential liability
12 | CC[C@H](C)[C@@H]1NC(=O)[C@H](Cc2ccc(O)cc2)NC(=O)[C@H](CC(C)C)NC(=O)[C@@H]2CCCN2C(=O)[C@H](NC(=O)[C@H](CCCCN=[N+]=[N-])NC(C)=O)CSCSC[C@@H](C(N)=O)NC(=O)[C@H](C(C)C)NC(=O)[C@@H]2CCCN2C(=O)[C@H](CC(=O)O)NC(=O)[C@H](Cc2ccc(O)cc2)NC(=O)[C@H](CO)NC1=O [Compound 25] |  | >100 | activation of mast cell degranulation (histamine release), in words (rat mast cells): free from this potential liability
13 | N#CC(=C(/N)Sc1ccccc1N)/C(C#N)=C(/N)Sc1ccccc1N [Compound U0126, reference compound] |  |  | inhibition of MAPK signaling in A375 [1]: inhibited MAPK signaling; inhibition of MAPK signaling in SK-MEL-28 [2]: inhibited MAPK signaling
14 | CC[C@H](C)[C@@H]1NC(=O)[C@H](Cc2ccc(O)cc2)NC(=O)[C@H](CC(C)C)NC(=O)[C@@H]2CCCN2C(=O)[C@H](NC(=O)[C@H](CCCNC(=N)N)NC(=O)[C@H](CCCNC(=N)N)NC(=O)[C@H](CCCCN=[N+]=[N-])NC(C)=O)CSCSC[C@@H](C(=O)N[C@@H](CCCNC(=N)N)C(=O)N[C@@H](CCCNC(=N)N)C(N)=O)NC(=O)[C@H](C(C)C)NC(=O)[C@@H]2CCCN2C(=O)[C@H](CC(=O)O)NC(=O)[C@H](Cc2ccc(O)cc2)NC(=O)[C@H](CO)NC1=O [MP-1687] |  | ≥3.7 | half-life at 1 µM (in vitro; tissue homogenate): 0.617 h
15 | CC[C@H](C)[C@@H]1NC(=O)[C@H](Cc2ccc(O)cc2)NC(=O)[C@H](CC(C)C)NC(=O)[C@@H]2CCCN2C(=O)[C@H](NC(=O)[C@H](CCCNC(=N)N)NC(=O)[C@H](CCCNC(=N)N)NC(=O)[C@H](CCCNC(=N)N)NC(=O)[C@H](CCCNC(=N)N)NC(=O)[C@H](CCCCN=[N+]=[N-])NC(C)=O)CSCSC[C@@H](C(=O)N[C@@H](CCCNC(=N)N)C(=O)N[C@@H](CCCNC(=N)N)C(=O)N[C@@H](CCCNC(=N)N)C(=O)N[C@@H](CCCNC(=N)N)C(N)=O)NC(=O)[C@H](C(C)C)NC(=O)[C@@H]2CCCN2C(=O)[C@H](CC(=O)O)NC(=O)[C@H](Cc2ccc(O)cc2)NC(=O)[C@H](CO)NC1=O [MP-6483] |  | ≥0.14 | inhibition of KRAS signaling (pERK, pAKT) by Western blot [3]: display cell-based inhibition
16 | CC[C@H](C)[C@@H]1NC(=O)[C@H](Cc2ccc(O)cc2)NC(=O)[C@H](CC(C)C)NC(=O)[C@@H]2CCCN2C(=O)[C@H](NC(=O)[C@@H](CCCNC(=N)N)NC(=O)[C@@H](CCCNC(=N)N)NC(=O)[C@@H](CCCNC(=N)N)NC(=O)[C@@H](CCCNC(=N)N)NC(=O)[C@H](CCCCN=[N+]=[N-])NC(C)=O)CSCSC[C@@H](C(=O)N[C@H](CCCNC(=N)N)C(=O)N[C@H](CCCNC(=N)N)C(=O)N[C@H](CCCNC(=N)N)C(=O)N[C@H](CCCNC(=N)N)C(N)=O)NC(=O)[C@H](C(C)C)NC(=O)[C@@H]2CCCN2C(=O)[C@@H](CC(=O)O)NC(=O)[C@H](Cc2ccc(O)cc2)NC(=O)[C@H](CO)NC1=O [MP-9658, Ac-K(N3)-rrrr-cyclo(c(methylene)PLYISYdPVC)-rrrr-NH2] |  |  | inhibition of MAPK signaling in A375 [1]: inactive; inhibition of MAPK signaling in SK-MEL-28 [2]: inactive
17 | CC[C@H](C)[C@@H]1NC(=O)[C@H](Cc2ccc(O)cc2)NC(=O)[C@H](CC(C)C)NC(=O)[C@@H]2CCCN2C(=O)[C@H](NC(=O)[C@H](CCCNC(=N)N)NC(=O)[C@H](CCCCN=[N+]=[N-])NC(C)=O)CSCSC[C@@H](C(=O)N[C@@H](CCCNC(=N)N)C(N)=O)NC(=O)[C@H](C(C)C)NC(=O)[C@@H]2CCCN2C(=O)[C@H](CC(=O)O)NC(=O)[C@H](Cc2ccc(O)cc2)NC(=O)[C@H](CO)NC1=O [MP-9903] |  | >100 | activation of mast cell degranulation (histamine release), in words (rat mast cells): free from this potential liability
